Results taken from patent US20230190933A1, “Immunologically Active Peptide-Biliverdin Conjugate, Preparation Method Therefor and Application Thereof” (priority 2020, published 2023).
Where no end group is shown, it is not given here.

Legend:
[1] = tested on: cervical cancer U14 mouse model; conditions: 5 mg kg^-1 intraperitoneally; 2nd, 4th and 7th day
[2] = tested on: in-situ model of pancreatic cancer Pan02; conditions: 4 mg kg^-1, presence and absence of light (730 nm, 0.5 W/cm^2), 15th day
[3] = tested on: mouse breast cancer cells 4T1; conditions: absence of light; 100 uL of 0.2 mg mL^-1 intraperitoneally on day 1, 2, 4, 8; 28 days
[4] = temperature rise in vitro under laser irradiation; format: physicochemical; conditions: 0.2 mg mL^-1, 730 nm laser, 0.3 W/cm^2, 10 min
Experimental: Firstly, biliverdin-Mn metal complex was chemically synthesized by biliverdin and excess manganese acetate tetrahydrate, and the biliverdin-Mn-[…] conjugate was prepared from biliverdin-Mn metal complex and […] according to the aforementioned chemical synthesis method. […] 1 mL of this conjugate (at a concentration of 0.2 mg mL^-1) was irradiated at 730 nm laser (0.3 W/cm^2) for 10 min, and the temperature rise of the conjugate solution was investigated.

[5] = tested on: lung cancer Lewis; test: combination of photothermal immunotherapy and immunotherapy (interferon); format: in vivo; conditions: conjugate 3 mg kg^-1 combined with interferon 20U/ mouse, initial volume 300 mm^3
Experimental: (§1) The biliverdin-[…] conjugate was prepared from biliverdin molecule and […] according to the above chemical synthesis method.

[6] = tested on: skin melanoma B16-F10; test: as above; format: in vivo; conditions: conjugate 3 mg kg^-1 combined with interferon 20U/ mouse, initial volume 300 mm^3
Experimental: as §1

[7] = tested on: mouse colon cancer cells ct-26
Experimental: According to the standard tumor mouse modeling method, C57BL/6 mouse model was established, and the mouse colon cancer cells ct-26 were inoculated subcutaneously, and then these mice were fed in SPF environment. […] The mice were divided into the following four groups: blank group (normal saline), conjugate group (no light group) and conjugate group (light group), with 10 mice in each group. These mice were administered once on the 1st, 3rd, 8th and 12th day with the administration concentration being 2 mg kg^-1. Wherein, the mice of the conjugate (light group) were irradiated with laser once 4 hours after administration on the first day, and the parameters were as follows: the laser intensity was 0.5 W/cm^2 and the laser wavelength was 808 nm. The tumor inhibition of mice during the whole treatment cycle (the cycle is 45 days) was monitored.

[8] = tested on: Human Umbilical Vein Endothelial Cells HUVEC; test: MTT colorimetric method, incubation in the dark; format: cell-based; conditions: different concentration gradients
Experimental: The biliverdin-[…] conjugate was prepared from biliverdin molecule and […] according to the chemical synthesis method of Example 1. […] The prepared conjugates with different concentration gradients were incubated with Human Umbilical Vein Endothelial Cells HUVEC in the dark, and the biological safety of the conjugates was evaluated by MTT colorimetric method.

[9] = cyclic (three) photothermal heating curves; format: physicochemical; conditions: compared with biliverdin molecule; three heating cycles

## biliverdin-EQLESIINFEKLTE conjugate [Example 13]
[1]
  immune effect (CD4+T and CD8+T cells in spleen and draining lymph nodes): has immune effect

## biliverdin-Ga-FKFEFKFE conjugate [Example 10]
[2]
  immune promoting factor content in tumor (IFN-7): up-regulate the organism’s immunity
  immune suppressing factor content in tumor (IL-4 and IL-10): down-regulate the immunosuppressive behavior

## biliverdin-IMDQVPFSV conjugate [Example 8]
[3]
  anti-tumor behavior (tumor volume): potential immune anti-tumor activity

## biliverdin-Mn-YLEPGPVTA conjugate [Example 7]
[4]
  photo-thermal conversion effect (temperature rise): good photo-thermal conversion effect

## biliverdin-PDRAHYNI conjugate [Example 15]
[5]
  combined inhibitory effect on tumor: significantly enhances the anti-tumor effect
[6]
  combined inhibitory effect on tumor: significantly enhances the anti-tumor effect

## biliverdin-QQKFQFQFEQQ conjugate [Example 9]
[7]; 2 mg kg^-1 on day 1, 3, 8, 12, 45 day cycle
  therapeutic effect of tumor photothermal immunotherapy (tumor inhibition curve): good therapeutic effect
[7]; light group, 2 mg kg^-1, 808 nm 0.5 W/cm^2, 29th day after treatment
  tumor clearance: all the mice tumors were cleared
[7]; light group, monitored from the 30th day to the 45th day
  tumor recurrence: can effectively prevent tumor recurrence

## biliverdin-SIINFEKL conjugate [Example 1]
[8]
  cytotoxicity (cell activity): no obvious cytotoxicity
[9]
  cyclic stability of photothermal heating: better cyclic stability
  photothermal heating effect: better heating effect
